{"source": "paper PMC7600264", "about": "“Quasi-Irreversible Inhibition of CYP2D6 by Berberine” (Pharmaceutics, 2020)", "key": {"[1]": {"molecular_target": "T1, CYP2D6 (Homo sapiens, UniProt P10635)", "T1 sequence (P10635 whole entry)": "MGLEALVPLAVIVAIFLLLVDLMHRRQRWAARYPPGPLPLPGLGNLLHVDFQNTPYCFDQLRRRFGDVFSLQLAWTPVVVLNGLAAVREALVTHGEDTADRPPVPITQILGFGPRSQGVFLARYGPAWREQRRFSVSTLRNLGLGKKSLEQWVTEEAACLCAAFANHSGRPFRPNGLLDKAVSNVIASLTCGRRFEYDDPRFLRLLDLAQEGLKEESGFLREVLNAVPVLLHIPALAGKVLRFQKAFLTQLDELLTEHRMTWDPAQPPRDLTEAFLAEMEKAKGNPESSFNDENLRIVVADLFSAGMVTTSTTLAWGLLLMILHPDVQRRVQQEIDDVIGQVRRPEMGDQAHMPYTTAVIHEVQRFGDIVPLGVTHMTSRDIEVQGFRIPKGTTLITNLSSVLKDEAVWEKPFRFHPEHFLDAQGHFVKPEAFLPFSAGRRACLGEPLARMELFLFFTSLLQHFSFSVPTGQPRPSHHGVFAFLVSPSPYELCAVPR", "experiment": "Kinetic parameters for MDI of CYP2D6 in pooled HLM", "experimental": "(§1) BBR (0–16 μM) was incubated with pooled HLM (0.2 mg/mL), NADPH (1 mM), and dextromethorphan (5 µM) in phosphate buffer (0.1 M; pH 7.4) for various incubation time periods (0–30 min). The apparent inactivation rate constants (kobs) at various BBR concentrations were estimated by fitting first-order kinetics to the relative enzyme activity vs. incubation time profiles. The rate of enzyme inactivation (kinact) and the inhibition constant (KI) were determined by fitting the following Equation (1) to the kobs values at various inhibitor concentrations Equation (1) [31]:(1) 1/kobs=KI/kinact×1/I+1/kinact"}, "[2]": {"molecular_target": "T1, CYP2D6", "experiment": "in vitro", "conditions": "pH 7.4", "experimental": "(§2) Pre-incubation was performed in pooled HLM (0.2 mg/mL) added with BBR, THB, TFD, or DMB, or rhCYP2D6 (10 pmol/mL) added with BBR, with or without NADPH (1 mM) in phosphate buffer (0.1 M; pH 7.4) for 30 min. Then, the CYP2D6 substrate (5 µM of dextromethorphan) and NADPH (1 mM) were added to the mixture and incubated for another 10 min. All incubations were carried out at 37 °C in a shaking water bath (100 rpm) using eight-well tube strips placed in an 8 × 12 rack, where the final volume of each reaction mixture was 200 µL. […] The enzyme reactions were quenched by adding an aliquot (200 µL) of ice-cold ACN containing CBZ (100 nM) as an IS. The samples were centrifuged, and the concentration of CYP2D6 metabolite (i.e., dextrorphan, produced by O-demethylation of dextromethorphan) in supernatants were analyzed using the LC-MS/MS method described in Section 2.2."}, "[3]": {"molecular_target": "T1, CYP2D6", "design": "method as in PMID 25145883", "conditions": "HLM; previous study; cited from earlier work"}, "[4]": {"design": "method as in PMID 19589224, PMID 12562448, PMID 27283523", "conditions": "clinical PK studies; single administration of BBR; highly variable; cited from earlier work"}, "[5]": {"molecular_target": "T1, CYP2D6", "conditions": "microsomes", "experimental": "as §1"}, "[6]": {"molecular_target": "recombinant human CYP2D6 (rhCYP2D6) (Homo sapiens, UniProt P10635)", "sequence (P10635 whole entry)": "as above", "experiment": "Metabolism-dependent CYP2D6 inhibition assay (IC50 shift) using rhCYP2D6", "experimental": "as §2"}, "[7]": {"test_system": "microsomal metabolism of nebivolol", "experiment": "BBR-nebivolol interaction in pooled HLM", "type": "in vitro ADME, human", "conditions": "nebivolol 1 µM; pooled HLM 1 mg/mL; BBR 0, 1, 3, 10 µM; 60 min", "description": "The HDI between BBR and nebivolol was assessed using pooled HLM, where nebivolol (1 μM) was incubated with HLM (1 mg/mL) and NADPH-generating system (see Section 2.6) in phosphate buffer (0.1 M; pH 7.4) with BBR at various concentrations (0, 1, 3, and 10 μM). The mixture (total volume of 200 µL) was incubated at 37 °C for 60 min in a shaking water bath (100 rpm), following a 5 min of pre-incubation at 37 °C. […] The mass transitions of nebivolol and CBZ were m/z 406 to 151 and m/z 237 to 194, respectively."}, "[8]": {"molecular_target": "T1, CYP2D6", "conditions": "microsomes", "remark": "listed apart in the source", "experimental": "The pre-incubation mixtures consisting of potassium phosphate buffer (0.1 M; pH 7.4), HLM (1 mg/mL), NADPH (1 mM), and inhibitor (total volumes of 180 µL per well) were incubated at 37 °C for 30 min. To verify the reversibility of quasi-irreversible inhibition, potassium ferricyanide (2 mM) was co-incubated with the mixture for 10 min at 37 °C, from which microsomes were re-isolated by ultracentrifugation at 100,000 g for 60 min at 4 °C. The resulting microsomal pellet was washed twice with potassium phosphate buffer (0.1 M; pH 7.4). The obtained microsomes (adjusted to 0.2 mg/mL) were incubated with CYP substrates (25 µM of dextromethorphan for CYP2D6 and 25 µM of MDZ for CYP3A4) and NADPH (1 mM) in potassium phosphate buffer (0.1 M; pH 7.4) for 5 min to measure the CYP activity. The reactions were terminated by the addition of ACN (200 µL) containing CBZ (100 nM)."}, "[9]": {"type": "in vitro ADME, human", "conditions": "precursor 1 µM in pooled HLM with NADPH-generating system, mean ± SD", "description": "Table 3. Putative M1 metabolite produced in pooled HLM incubated with thalifendine or\nPrecursor molecules Incubation time (min)a M1 signal at m/z 310 (103 × cps)b\nDemethyleneberberine 0 107 ± 3\na Thalifendine or demethyleneberberine (1 μM) was incubated with pooled HLM in the presence of\nNADPH-generating system; b Each value represents the mean ± SD for three separate samples. […]"}}, "note": "Read-outs that look alike come from different tables or passages of the source."}
{"compound": "COc1ccc2cc3[n+](cc2c1OC)CCc1cc2c(cc1-3)OCO2", "note": "[BBR, berberine]", "values": [{"measurement": "Ki", "setting": "[1]", "result": 4.29, "unit": "µM"}, {"measurement": "kinact", "setting": "[1]; human, pooled human liver microsomes, pH 7.4, probe dextromethorphan (5 µM)", "result": 0.000417, "unit": "s⁻¹"}, {"measurement": "IC50 shift at 10 min", "setting": "[2]", "result": "~7.5"}, {"measurement": "IC50", "setting": "[3]", "result": "~23.5", "unit": "µM"}, {"measurement": "Maximum plasma concentration", "setting": "[4]", "result": "less than 1 nM to more than 1 µM"}, {"measurement": "kinact/KI against CYP2D6", "setting": "[5]", "result": 97.2, "unit": "M⁻¹ s⁻¹"}, {"measurement": "IC50", "setting": "[6]; IC50 against rhCYP2D6, pre-incubation with NADPH, 30 min pre-incubation with NADPH", "result": 1.73, "unit": "µM"}, {"measurement": "IC50", "setting": "[6]; IC50 against rhCYP2D6, pre-incubation without NADPH, 30 min pre-incubation in the absence of NADPH", "result": 5.31, "unit": "µM"}, {"measurement": "Effect on microsomal clearance of nebivolol", "setting": "[7]", "result": "significantly inhibited"}, {"measurement": "Mode of CYP2D6 inhibition", "setting": "[8]", "result": "quasi-irreversible"}]}
{"compound": "COc1ccc2cc3[n+](cc2c1OC)CCc1cc(O)c(O)cc1-3", "note": "[DMB, demethyleneberberine]", "values": [{"measurement": "M1 signal at m/z 310", "setting": "[9]; incubation time 0 min", "result": "107 ± 3 103 × cps"}, {"measurement": "M1 signal at m/z 310", "setting": "[9]; incubation time 30 min", "result": "432 ± 27 103 × cps"}]}
